Measurements published in US20260174875A1 (Novo Nordisk A/S, priority 2023, published 2026).

Experiment: Chemical stability assessment in formulation (UPLC-UV-MS purity loss at 37° C.)
Type: physicochemical
Conditions: 8 mM phosphate buffer pH 7.4, 1 mg/mL, 2 weeks
Experimental: The assay was performed to investigate the extend of chemical degradation in vitro over time upon incubation at 37° C. for a period of 2 weeks.
Peptide solutions were prepared by dissolving freeze-dried powder in 8 mM phosphate buffer pH 7.4 to a target of 1 mg/mL. The pH of peptide solutions was adjusted to 7.4 with 0.02 M HCl or 0.02 M NaOH. Samples were filled in Agilent HPLC vials with fixed insert. Vials were capped to prevent evaporation. The HPLC vials were incubated at 37° C. and samples were withdrawn at different time points over a period of 2 weeks, flash frozen at −80° C., and stored at −20° C. until analysis.
A flow-rate of 100 μL/min was delivered with a Binary solvent manager pump having 0.1% formic acid in water as solvent A and 0.1% formic acid in acetonitrile as solvent B. Gradient elution was carried out using 20% B from 0 to 2 min followed by 20 to 50% B from 2 to 20 min in a total run time of 30 min.

| Purity loss per week at 37° C. [%] | Structure (SMILES) |
| --- | --- |
| 1.0 | CC[C@H](C)[C@H](NC(=O)[C@H](CCC(=O)O)NC(=O)[C@H](CCC(=O)O)NC(=O)[C@H](CC(C)C)NC(=O)[C@H](CC(C)C)NC(=O)[C@@H](NC(=O)[C@H](CO)NC(=O)[C@H](Cc1ccc(O)cc1)NC(=O)[C@H](CC(=O)O)NC(=O)[C@H](CO)NC(=O)[C@@H](NC(=O)[C@H](Cc1ccccc1)NC(=O)[C@@H](NC(=O)CNC(=O)[C@H](CCC(=O)O)NC(=O)C(C)(C)NC(=O)[C@@H](N)Cc1ccc(O)cc1)[C@@H](C)O)[C@@H](C)O)[C@@H](C)CC)C(=O)N[C@@H](C)C(=O)N[C@@H](C)C(=O)N[C@@H](CCCNC(=N)N)C(=O)N[C@@H](CCC(=O)O)C(=O)N[C@@H](Cc1ccccc1)C(=O)N[C@H](C(=O)N[C@@H](CCC(=O)O)C(=O)N[C@@H](Cc1c[nH]c2ccccc12)C(=O)N[C@@H](CC(C)C)C(=O)N[C@@H](CC(C)C)C(=O)N[C@@H](C)C(=O)NCC(=O)NCC(=O)N1CCC[C@H]1C(=O)N[C@@H](CO)C(=O)N[C@@H](CO)C(=O)NCC(=O)N[C@@H](C)C(=O)NCC(=O)N[C@@H](CCC(N)=O)C(=O)N[C@@H](C)C(=O)N1CCC[C@H]1C(=O)NCC(=O)N[C@@H](CCC(N)=O)C(=O)N[C@@H](C)C(=O)N1CCC[C@H]1C(=O)NCC(=O)N[C@@H](C)C(=O)N[C@@H](CO)C(=O)N[C@@H](Cc1c[nH]cn1)C(=O)N[C@@H](CC(C)C)C(=O)N[C@@H](CO)C(=O)N[C@H](C(=O)N[C@@H](C)C(=O)N[C@@H](CCC(N)=O)C(=O)N[C@H](C(=O)N[C@@H](CCC(N)=O)C(=O)N[C@@H](CCCNC(=N)N)C(=O)N[C@@H](CC(C)C)C(=O)N[C@@H](CO)C(=O)N[C@@H](C)C(=O)N[C@@H](CCC(=O)O)C(=O)N[C@@H](CC(C)C)C(=O)N[C@@H](Cc1c[nH]cn1)C(=O)N[C@@H](CCCCNC(=O)COCCOCCNC(=O)COCCOCCNC(=O)CC[C@H](NC(=O)CCCCCCCCCCCCCCCCCCC(=O)O)C(=O)O)C(=O)N[C@@H](CC(C)C)C(=O)N[C@@H](C)C(=O)N[C@H](C(=O)N[C@@H](CCC(=O)O)C(=O)N1CCC[C@H]1C(=O)N[C@@H](CCCNC(=N)N)C(=O)N[C@H](C(=O)N[C@@H](CCC(=O)O)C(=O)N[C@H](C(=O)NCC(=O)N[C@@H](CO)C(=O)NCC(=O)N[C@@H](CO)C(=O)N1CCC[C@H]1C(N)=O)[C@@H](C)O)[C@@H](C)O)[C@@H](C)O)[C@@H](C)O)[C@@H](C)O)[C@@H](C)CC [Compound 162] |
| 0.9 | CC[C@H](C)[C@H](NC(=O)[C@H](CCC(=O)O)NC(=O)[C@H](CCC(=O)O)NC(=O)[C@H](CC(C)C)NC(=O)[C@H](CC(C)C)NC(=O)[C@H](CCCCNC(=O)COCCOCCNC(=O)COCCOCCNC(=O)CC[C@H](NC(=O)CCCCCCCCCCCCCCCCCCC(=O)O)C(=O)O)NC(=O)[C@H](CO)NC(=O)[C@H](Cc1ccc(O)cc1)NC(=O)[C@H](CC(=O)O)NC(=O)[C@H](CO)NC(=O)[C@@H](NC(=O)[C@H](Cc1ccccc1)NC(=O)[C@@H](NC(=O)CNC(=O)[C@H](CCC(=O)O)NC(=O)C(C)(C)NC(=O)[C@@H](N)Cc1ccc(O)cc1)[C@@H](C)O)[C@@H](C)O)C(=O)N[C@@H](C)C(=O)N[C@@H](C)C(=O)N[C@@H](CCCNC(=N)N)C(=O)N[C@@H](CCC(=O)O)C(=O)N[C@@H](Cc1ccccc1)C(=O)N[C@H](C(=O)N[C@@H](CCC(=O)O)C(=O)N[C@@H](Cc1c[nH]c2ccccc12)C(=O)N[C@@H](CC(C)C)C(=O)N[C@@H](CC(C)C)C(=O)N[C@@H](C)C(=O)NCC(=O)NCC(=O)N1CCC[C@H]1C(=O)N[C@@H](CO)C(=O)N[C@@H](CO)C(=O)NCC(=O)N[C@@H](C)C(=O)NCC(=O)N[C@@H](CCC(N)=O)C(=O)N[C@@H](C)C(=O)N1CCC[C@H]1C(=O)NCC(=O)N[C@@H](CCC(=O)O)C(=O)N[C@@H](C)C(=O)N1CCC[C@H]1C(=O)NCC(=O)N[C@@H](C)C(=O)N[C@@H](CO)C(=O)N[C@@H](CCC(=O)O)C(=O)N[C@@H](CC(C)C)C(=O)N[C@@H](CO)C(=O)N[C@H](C(=O)N[C@@H](C)C(=O)N[C@@H](C)C(=O)N[C@@H](CC(C)C)C(=O)NCC(=O)N[C@@H](CCCNC(=N)N)C(=O)N[C@@H](CC(C)C)C(=O)N[C@@H](CO)C(=O)N[C@@H](C)C(=O)N[C@@H](CCC(=O)O)C(=O)N[C@@H](CC(C)C)C(=O)N[C@@H](Cc1c[nH]cn1)C(=O)N[C@@H](CCC(N)=O)C(=O)N[C@@H](CC(C)C)C(=O)N[C@@H](C)C(=O)N[C@H](C(=O)N[C@@H](CCC(=O)O)C(=O)N1CCC[C@H]1C(=O)N[C@@H](CCCNC(=N)N)C(=O)N[C@H](C(=O)N[C@@H](CCC(=O)O)C(=O)N[C@H](C(=O)NCC(=O)N[C@@H](CO)C(=O)NCC(=O)N[C@@H](CO)C(=O)N1CCC[C@H]1C(N)=O)[C@@H](C)O)[C@@H](C)O)[C@@H](C)O)[C@@H](C)O)[C@@H](C)CC [Compound 172] |
| 1.0 | CC[C@H](C)[C@H](NC(=O)[C@H](CCC(=O)O)NC(=O)[C@H](CCC(=O)O)NC(=O)[C@H](CC(C)C)NC(=O)[C@H](CC(C)C)NC(=O)[C@H](CCCCNC(=O)COCCOCCNC(=O)COCCOCCNC(=O)CC[C@H](NC(=O)CCCCCCCCCCCCCCCCCCC(=O)O)C(=O)O)NC(=O)[C@H](CO)NC(=O)[C@H](Cc1ccc(O)cc1)NC(=O)[C@H](CC(=O)O)NC(=O)[C@H](CO)NC(=O)[C@@H](NC(=O)[C@H](Cc1ccccc1)NC(=O)[C@@H](NC(=O)CNC(=O)[C@H](CCC(=O)O)NC(=O)C(C)(C)NC(=O)[C@@H](N)Cc1ccc(O)cc1)[C@@H](C)O)[C@@H](C)O)C(=O)N[C@@H](C)C(=O)N[C@@H](C)C(=O)N[C@@H](CCCNC(=N)N)C(=O)N[C@@H](CCC(=O)O)C(=O)N[C@@H](Cc1ccccc1)C(=O)N[C@H](C(=O)N[C@@H](CCC(=O)O)C(=O)N[C@@H](Cc1c[nH]c2ccccc12)C(=O)N[C@@H](CC(C)C)C(=O)N[C@@H](CC(C)C)C(=O)N[C@@H](C)C(=O)NCC(=O)NCC(=O)N1CCC[C@H]1C(=O)N[C@@H](CO)C(=O)N[C@@H](CO)C(=O)NCC(=O)N[C@@H](C)C(=O)NCC(=O)N[C@@H](CCC(N)=O)C(=O)N[C@@H](C)C(=O)N1CCC[C@H]1C(=O)NCC(=O)N[C@@H](CCC(=O)O)C(=O)N[C@@H](C)C(=O)N1CCC[C@H]1C(=O)NCC(=O)N[C@@H](C)C(=O)N[C@@H](CO)C(=O)N[C@@H](CCC(=O)O)C(=O)N[C@@H](CC(C)C)C(=O)N[C@@H](CO)C(=O)N[C@H](C(=O)N[C@@H](C)C(=O)N[C@@H](C)C(=O)N[C@@H](CC(C)C)C(=O)NCC(=O)N[C@@H](CCCNC(=N)N)C(=O)N[C@@H](CC(C)C)C(=O)N[C@@H](CO)C(=O)N[C@@H](C)C(=O)N[C@@H](CCC(=O)O)C(=O)N[C@@H](CC(C)C)C(=O)N[C@@H](Cc1c[nH]cn1)C(=O)N[C@@H](CCC(N)=O)C(=O)N[C@@H](CC(C)C)C(=O)N[C@@H](C)C(=O)N[C@H](C(=O)N[C@@H](CC(C)C)C(=O)N1CCC[C@H]1C(=O)N[C@@H](CCCNC(=N)N)C(=O)N[C@H](C(=O)N[C@@H](CCC(=O)O)C(=O)N[C@H](C(=O)NCC(=O)N[C@@H](CO)C(=O)NCC(=O)N[C@@H](CO)C(=O)N1CCC[C@H]1C(N)=O)[C@@H](C)O)[C@@H](C)O)[C@@H](C)O)[C@@H](C)O)[C@@H](C)CC [Compound 171] |
| 0.7 | CC[C@H](C)[C@H](NC(=O)[C@H](CCC(=O)O)NC(=O)[C@H](CCC(=O)O)NC(=O)[C@H](CC(C)C)NC(=O)[C@H](CC(C)C)NC(=O)[C@@H](NC(=O)[C@H](CO)NC(=O)[C@H](Cc1ccc(O)cc1)NC(=O)[C@H](CC(=O)O)NC(=O)[C@H](CO)NC(=O)[C@@H](NC(=O)[C@H](Cc1ccccc1)NC(=O)[C@@H](NC(=O)CNC(=O)[C@H](CCC(=O)O)NC(=O)C(C)(C)NC(=O)[C@@H](N)Cc1ccc(O)cc1)[C@@H](C)O)[C@@H](C)O)[C@@H](C)CC)C(=O)N[C@@H](C)C(=O)N[C@@H](C)C(=O)N[C@@H](CCCNC(=N)N)C(=O)N[C@@H](CCC(=O)O)C(=O)N[C@@H](Cc1ccccc1)C(=O)N[C@H](C(=O)N[C@@H](CCC(=O)O)C(=O)N[C@@H](Cc1c[nH]c2ccccc12)C(=O)N[C@@H](CC(C)C)C(=O)N[C@@H](CC(C)C)C(=O)N[C@@H](C)C(=O)NCC(=O)NCC(=O)N1CCC[C@H]1C(=O)N[C@@H](CO)C(=O)N[C@@H](CO)C(=O)NCC(=O)N[C@@H](C)C(=O)NCC(=O)N[C@@H](C)C(=O)N[C@@H](CO)C(=O)N[C@@H](CCC(N)=O)C(=O)N[C@@H](CC(C)C)C(=O)N[C@@H](CO)C(=O)N[C@H](C(=O)N[C@@H](C)C(=O)N[C@@H](CCC(N)=O)C(=O)N[C@H](C(=O)N[C@@H](CCC(N)=O)C(=O)N[C@@H](CCCNC(=N)N)C(=O)N[C@@H](CC(C)C)C(=O)N[C@@H](CO)C(=O)N[C@@H](C)C(=O)N[C@@H](CCC(=O)O)C(=O)N[C@@H](CC(C)C)C(=O)N[C@@H](Cc1c[nH]cn1)C(=O)N[C@@H](CCCCNC(=O)COCCOCCNC(=O)COCCOCCNC(=O)CC[C@H](NC(=O)CCCCCCCCCCCCCCCCCCC(=O)O)C(=O)O)C(=O)N[C@@H](CC(C)C)C(=O)N[C@@H](C)C(=O)N[C@H](C(=O)N[C@@H](CCC(=O)O)C(=O)N1CCC[C@H]1C(=O)N[C@@H](CCCNC(=N)N)C(=O)N[C@H](C(=O)N[C@@H](CCC(=O)O)C(=O)N[C@H](C(=O)NCC(=O)N[C@@H](CO)C(=O)NCC(=O)N[C@@H](CO)C(=O)N1CCC[C@H]1C(N)=O)[C@@H](C)O)[C@@H](C)O)[C@@H](C)O)[C@@H](C)O)[C@@H](C)O)[C@@H](C)CC [Compound 180] |
